Test results as given in patent US20160089391A1, “Molecular Targets for Cardiovascular Disease” (Temple University-of the Commonwealth System of Higher …, priority 2014, published 2016).

Experiments:
[1] = test system: NO production in HAECs; assay: NO production in HAECs by DAF-FM staining; format: cell-based, human; conditions: for NO generation: HAECs, DL-Hcy 500 μmol/L and/or D-Glu 25 mmol/L for 48 hrs
Method: (§1) (FIG. 6A). Images of NO. Nitric oxide (NO) production in HAECs was measured by staining intact HAECs with NO marker DAF-FM. N^G-nitro-L-arginine methyl ester (L-NAME, 100 μmol/L, Sigma #N5751) was added in the last hour as a negative control. (FIG. 6B). Quantification of NO. (FIG. 6C). eNOS activity. Human aortic endothelial cells (HAECs) were cultured in EC medium which contains 5 mmol/L D-Glucose (D-Glu), and treated with DL-homocysteine (DL-Hcy, 500 μmol/L) and/or (D-Glu, 25 mmol) without or with MDL28170 (MDL) for 48 hrs, CTsiRNA or μ-calpsiRNA for 72 hrs. L-NAME (100 μmol/L) was added in the last hour. NO was measured by staining intact HAECs with NO marker (DAF-FM, 10 μmol/L, Sigma #D2321, 30 mins.). Endothelial nitric oxide synthase (eNOS) activity was assessed by measuring of ^3H-L-arginine conversion to ^3H-citrulline in intact HAECs. n=3, *p<0.05 vs control; †p<0.05 vs DL-Hcy-treated HAECs; ‡p<0.05 vs D-Glu-treated HAECs; #p<0.05 vs DL-Hcy/D-Glu-treated HAECs. DAF-FM, 4-Amino-5-methylamino-2′,7′-difluorescein; CTsiRNA, control siRNA; HG, hyperglycemia; HHcy, hyperhomocysteinemia; μ-calpsiRNA, μ-calpain siRNA.
(§2) HAECs treated with or without DL-Hcy and/or D-Glu for 48 hrs were stained with 4-Amino-5-Methylamino-2′,7′-Difluorofluorescein (DAF-FM). To explore the role of calpain, especially μ-calpain, the DL-Hcy/D-Glu-treated HAECs were also treated with MDL28170 (MDL, 20 μmol/L) and μ-calpain siRNA, respectively. HAECs treated with L-NAME (100 μmol/L) for 1 hr before DAF-FM staining were used as negative controls. eNOS activity in HAECs was determined by measuring the conversion of ^3H-Arg to ^3H-citrulline in intact cells as previous described (Jiang et al., 2005, Arterioscl Throm Vas 25:2515-2521).

[2] = molecular target: T1, eNOS (Homo sapiens, UniProt P29474); assay: eNOS activity in intact HAECs (3H-Arg to 3H-citrulline conversion); format: cell-based
T1 construct: endogenous in cells; host or cells: HAECs (human aortic endothelial cells)
T1 sequence (P29474 2-1203 limits assumed): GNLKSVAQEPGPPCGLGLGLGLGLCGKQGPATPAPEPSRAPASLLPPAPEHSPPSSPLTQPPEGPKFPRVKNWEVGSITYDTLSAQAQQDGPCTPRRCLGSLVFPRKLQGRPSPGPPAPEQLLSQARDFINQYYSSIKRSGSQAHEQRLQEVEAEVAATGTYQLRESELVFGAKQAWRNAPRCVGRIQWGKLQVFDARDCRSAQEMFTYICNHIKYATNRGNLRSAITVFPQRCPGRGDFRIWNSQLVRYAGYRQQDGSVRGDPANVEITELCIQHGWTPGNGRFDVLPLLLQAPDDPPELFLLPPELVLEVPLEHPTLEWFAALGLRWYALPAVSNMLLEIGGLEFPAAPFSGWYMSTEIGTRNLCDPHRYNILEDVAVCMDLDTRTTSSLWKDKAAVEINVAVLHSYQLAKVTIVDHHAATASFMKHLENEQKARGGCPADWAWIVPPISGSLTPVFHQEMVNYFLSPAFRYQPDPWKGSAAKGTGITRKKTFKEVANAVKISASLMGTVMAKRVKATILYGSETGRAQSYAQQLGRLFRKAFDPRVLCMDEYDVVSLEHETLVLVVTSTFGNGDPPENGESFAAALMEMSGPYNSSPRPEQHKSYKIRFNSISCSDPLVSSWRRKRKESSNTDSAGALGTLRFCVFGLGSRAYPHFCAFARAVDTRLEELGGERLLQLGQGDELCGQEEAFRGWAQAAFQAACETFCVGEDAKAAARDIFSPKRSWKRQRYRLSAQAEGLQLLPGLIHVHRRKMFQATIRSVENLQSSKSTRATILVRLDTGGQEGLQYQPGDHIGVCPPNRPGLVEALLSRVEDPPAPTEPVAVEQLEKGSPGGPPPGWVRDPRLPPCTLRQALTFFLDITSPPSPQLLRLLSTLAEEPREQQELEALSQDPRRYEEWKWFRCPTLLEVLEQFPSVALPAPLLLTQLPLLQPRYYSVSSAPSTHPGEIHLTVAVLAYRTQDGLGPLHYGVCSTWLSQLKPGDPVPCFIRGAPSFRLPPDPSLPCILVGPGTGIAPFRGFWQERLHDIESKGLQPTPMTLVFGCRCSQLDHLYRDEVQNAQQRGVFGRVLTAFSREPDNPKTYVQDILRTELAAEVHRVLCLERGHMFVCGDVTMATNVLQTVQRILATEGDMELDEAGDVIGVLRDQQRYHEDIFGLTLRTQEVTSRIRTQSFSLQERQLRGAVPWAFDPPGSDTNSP
Method: as §1, §2

[3] = HAECs, DL-Hcy 500 μmol/L and/or D-Glu 25 mmol/L for 48 hrs, relative to control

Compound | NO generation [1] | eNOS activity [2, 3] [%] | NO production ([1]; HHcy/HG (DL-Hcy/D-Glu)-treated HAECs, improved from 26%, MDL 20 μmol/L 48 hrs, siRNA 72 hrs) [%] | eNOS activity ([2]; HHcy/HG (DL-Hcy/D-Glu)-treated HAECs, improved from 35% (MDL) or printed 26% (siRNA), MDL 20 μmol/L 48 hrs, siRNA 72 hrs) [%]
O=C[C@H](O)[C@@H](O)[C@H](O)[C@H](O)CO [D-Glu, D-glucose] | 36 % of the control | 52 | – | –
MDL28170 | – | – | 86 | 74
NC(CCS)C(=O)O (racemic) [DL-Hcy, DL-homocysteine] | 78 % of the control | 69 | – | –
